The results in this text go back to patent publication US20230040182A1, “ARYL HETEROBICYCLIC COMPOUNDS AS Kv1.3 POTASSIUM SHAKER CHANNEL BLOCKERS” (priority 2019, published 2023).

Each structure is given as a SMILES string. Bounds are passed on as bounds.

Test [1] has as its target T1, Kv1.3 potassium channel (Homo sapiens, UniProt P22001).
T1 construct: expressed in transfected cells
In words: Kv1.3 potassium channel blocker activity, automated whole-cell patch clamp (Patchliner). To be noted: CHO-K1 cells stably expressing Kv1.3; whole-cell current, Hill fit. Type of test: cell-based. The gist of the method:
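Stably transfected CHO-K1 cells, whole-cell automated patch clamp: 100 ms pulses from −90 to +40 mV at 0.1 Hz, 20-pulse trains, cumulative concentrations 30 nM–100 μM without washout (≤0.3% DMSO), external pH 7.4. IC50 from Hill fit of last-pulse peak/AUC normalized to compound-free control.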

For test [2], the target named is T2, hERG channel (Homo sapiens, UniProt Q12809).
T2 construct: expressed in transfected cells
Briefly: hERG electrophysiology, automated whole-cell patch clamp (Patchliner). To be noted: CHO-K1 cells stably expressing hERG; whole-cell current, Hill fit. Type of test: cell-based. How it is done: Example 10. Evaluation of hERG Activities
This assay is used to evaluate the disclosed compounds' inhibition activities against the hERG channel.
CHO-K1 cells stably expressing hERG were grown in Ham's F-12 Medium with Glutamine containing 10% heat-inactivated FBS, 1% Penicillin/Streptomycin, Hygromycin (100 μg/ml) and G418 (100 μg/ml). Cells were grown in culture flasks at 37° C. in a 5% CO2-humidified incubator.
The cells were bathed in an extracellular solution containing 140 mM NaCl, 4 mM KCl, 2 mM CaCl2), 1 mM MgCl2, 5 mM Glucose, 10 mM HEPES; pH adjusted to 7.4 with NaOH; 295-305 mOsm. The internal solution contained 50 mM KCl, 10 mM NaCl, 60 mM KF, 20 mM EGTA, 10 mM HEPES; pH adjusted to 7.2 with KOH; 285 mOsm. All compounds were dissolved in DMSO at 30 mM. Compound stock solutions were freshly diluted with external solution to concentrations of 30 nM, 100 nM, 300 nM, 1 μM, 3 μM, 10 μM, 30 μM and 100 μM. The highest content of DMSO (0.3%) was present in 100 μM.
The voltage protocol (see Table B) was designed to simulate voltage changes during a cardiac action potential with a 300 ms depolarization to +20 mV (analogous to the plateau phase of the cardiac action potential), a repolarization for 300 ms to −50 mV (inducing a tail current) and a final step to the holding potential of −80 mV. The pulse frequency was 0.3 Hz. Control (compound-free) and compound pulse trains for each compound concentration applied contained 70 pulses.
Whole-cell current recordings and compound application were enabled by means of an automated patch clamp platform Patchliner (Nanion). EPC 10 patch clamp amplifier (HEKA) along with Patchmaster software (HEKA Elektronik Dr. Schulze GmbH) was used for data acquisition. Data were sampled at 10 kHz without filtering. Increasing compound concentrations were applied consecutively to the same cell without washouts in between.
AUC and PEAK values were obtained with Patchmaster (HEKA Elektronik Dr. Schulze GmbH). To determine IC50 the last single pulse in the pulse train corresponding to a given compound concentration was used. Obtained AUC and PEAK values in the presence of compound were normalized to control values in the absence of compound. Using Origin (OridinLab), IC50 was derived from data fit to Hill equation: Icompound/Icontrol=(100−A)/(1+([compound]/IC50)nH)+A, where IC50 is the concentration at which current inhibition is half-maximal, [compound] is the applied compound concentration, A is the fraction of current that is not blocked and nH is the Hill coefficient.
(Block of hERG is tested as a sign of cardiac risk.)

T1 sequence (P22001 whole entry): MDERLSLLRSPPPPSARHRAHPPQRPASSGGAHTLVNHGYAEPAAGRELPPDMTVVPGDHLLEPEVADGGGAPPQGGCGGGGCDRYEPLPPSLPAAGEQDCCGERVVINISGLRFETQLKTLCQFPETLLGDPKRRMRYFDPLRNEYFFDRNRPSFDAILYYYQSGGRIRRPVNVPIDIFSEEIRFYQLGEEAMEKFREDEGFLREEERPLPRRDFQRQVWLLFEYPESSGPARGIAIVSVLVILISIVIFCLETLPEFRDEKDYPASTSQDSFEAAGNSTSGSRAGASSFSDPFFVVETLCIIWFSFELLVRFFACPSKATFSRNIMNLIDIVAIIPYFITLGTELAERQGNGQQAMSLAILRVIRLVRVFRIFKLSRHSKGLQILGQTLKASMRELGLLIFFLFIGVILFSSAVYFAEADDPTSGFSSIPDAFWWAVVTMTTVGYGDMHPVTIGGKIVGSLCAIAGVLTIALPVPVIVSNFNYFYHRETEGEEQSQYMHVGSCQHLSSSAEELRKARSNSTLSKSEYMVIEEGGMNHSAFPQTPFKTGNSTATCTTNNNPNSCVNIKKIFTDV
T2 sequence (Q12809 whole entry): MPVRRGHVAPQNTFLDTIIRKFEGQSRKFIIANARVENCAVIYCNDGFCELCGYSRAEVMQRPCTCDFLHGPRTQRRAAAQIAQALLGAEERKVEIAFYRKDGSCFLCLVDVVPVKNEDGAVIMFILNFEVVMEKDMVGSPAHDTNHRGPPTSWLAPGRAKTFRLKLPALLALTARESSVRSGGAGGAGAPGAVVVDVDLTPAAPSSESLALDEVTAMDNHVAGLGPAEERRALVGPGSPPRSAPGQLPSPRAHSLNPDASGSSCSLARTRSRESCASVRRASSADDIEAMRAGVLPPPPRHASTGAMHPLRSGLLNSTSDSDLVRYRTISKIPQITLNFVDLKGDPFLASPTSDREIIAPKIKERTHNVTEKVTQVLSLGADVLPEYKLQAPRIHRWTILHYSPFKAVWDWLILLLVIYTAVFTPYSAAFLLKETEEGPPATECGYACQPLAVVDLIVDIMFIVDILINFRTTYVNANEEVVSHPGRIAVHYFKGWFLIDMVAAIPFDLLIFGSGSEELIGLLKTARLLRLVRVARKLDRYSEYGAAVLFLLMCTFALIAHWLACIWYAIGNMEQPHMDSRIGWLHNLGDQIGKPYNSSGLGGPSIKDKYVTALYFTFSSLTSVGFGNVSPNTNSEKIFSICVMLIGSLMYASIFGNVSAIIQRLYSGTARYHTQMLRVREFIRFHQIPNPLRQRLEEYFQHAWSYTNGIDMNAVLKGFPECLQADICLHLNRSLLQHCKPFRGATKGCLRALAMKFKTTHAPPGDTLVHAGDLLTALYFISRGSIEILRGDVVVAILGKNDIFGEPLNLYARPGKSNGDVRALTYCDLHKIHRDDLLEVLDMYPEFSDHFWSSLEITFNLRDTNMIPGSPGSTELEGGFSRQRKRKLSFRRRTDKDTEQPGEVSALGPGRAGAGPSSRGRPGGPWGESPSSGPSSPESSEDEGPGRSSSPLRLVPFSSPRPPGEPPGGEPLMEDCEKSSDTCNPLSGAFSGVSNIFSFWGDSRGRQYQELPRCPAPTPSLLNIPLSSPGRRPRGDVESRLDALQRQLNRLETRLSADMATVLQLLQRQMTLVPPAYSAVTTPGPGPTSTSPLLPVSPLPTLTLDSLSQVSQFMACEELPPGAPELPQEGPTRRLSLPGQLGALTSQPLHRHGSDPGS

The IC50 is the point on the concentration scale where inhibition reaches its midpoint. As to `O=C1[C@@H]2C[C@H](c3c(O)ccc(Cl)c3Cl)CCN2C(=O)CN1C(CO)CO` [Compound 32, (8R,9aS)-8-(2,3-dichloro-6-hydroxyphenyl)-2-(1,3-dihydroxypropan-2-yl)hexahydro-4H-pyrido[1,2-a]pyrazine-1,4(6H)-dione], the values for the IC50 in test [1] and in test [2] were below 1 µM and above 30 µM, respectively.

Regarding `CN1CC(=O)N2CCC(c3c(O)ccc(Cl)c3Cl)CC2C1=O` (centres unmarked) [Compound 36, 8-(2,3-dichloro-6-hydroxyphenyl)-2-methyl-octahydro-1H-pyrido[1,2-a]pyrazine-1,4-dione], the half-maximal inhibitory concentration (IC50) in test [1] is below 1 µM; in test [2], above 30 µM.

Take `O=C1NCC(=O)N2CC[C@@H](c3c(O)ccc(Cl)c3Cl)C[C@@H]12` [Compound 41, (8R,9aS)-8-(2,3-dichloro-6-hydroxyphenyl)hexahydro-4H-pyrido[1,2-a]pyrazine-1,4(6H)-dione]: the IC50 is below 1 µM in test [1] and above 30 µM in test [2].

As to `O=C1[C@@H]2C[C@H](c3cc(Cl)c(Cl)cc3O)CCN2C(=O)CN1C1CNC1` [Compound 50, (8R,9aS)-2-(azetidin-3-yl)-8-(4,5-dichloro-2-hydroxyphenyl)hexahydro-4H-pyrido[1,2-a]pyrazine-1,4(6H)-dione], the figures for the half-maximal inhibitory concentration (IC50) in test [1] and in test [2] were below 1 µM and above 30 µM, respectively.

As for `O=C1[C@@H]2C[C@H](c3c(O)ccc(Cl)c3Cl)CCN2C(=O)[C@H]2C[C@@H](O)CN12` [Compound 52, (2R,5aS,7R,11aR)-7-(2,3-dichloro-6-hydroxyphenyl)-2-hydroxyhexahydro-1H-pyrido[1,2-a]pyrrolo[1,2-d]pyrazine-5,11(5aH,11aH)-dione], the IC50 in test [1] was below 1 µM; in test [2] it was above 30 µM.

Regarding `O=C1N[C@@H](CO)C(=O)N2CC[C@@H](c3c(O)ccc(Cl)c3Cl)C[C@@H]12` [Compound 53, (3S,8R,9aS)-8-(2,3-dichloro-6-hydroxyphenyl)-3-(hydroxymethyl)hexahydro-4H-pyrido[1,2-a]pyrazine-1,4(6H)-dione], the IC50 in test [1] was below 1 µM; in test [2] it was above 30 µM.

Consider `C[C@H]1NC(=O)[C@@H]2C[C@H](c3c(O)ccc(Cl)c3Cl)CCN2C1=O` [Compound 58, (3R,8R,9aS)-8-(2,3-dichloro-6-hydroxyphenyl)-3-methyl-hexahydro-2H-pyrido[1,2-a]pyrazine-1,4-dione], for which the results for the IC50 in test [1] and in test [2] were below 1 µM and above 30 µM, respectively.

Turning to `O=C1N[C@H](CO)C(=O)N2CC[C@@H](c3c(O)cc(Cl)c(Cl)c3Cl)C[C@@H]12` [Compound 60, (8R,9aS)-3-((3R)-hydroxymethyl)-8-(2,3,4-trichloro-6-hydroxyphenyl)-hexahydro-2H-pyrido[1,2-a]pyrazine-1,4-dione], the half-inhibitory concentration (IC50) is below 1 µM in test [1] and above 30 µM in test [2].

With `O=C1[C@H]2C[C@@H](c3c(O)ccc(Cl)c3Cl)CCN2C(=O)CN1C1CNC1` [Compound 64, (8S,9aR)-2-(azetidin-3-yl)-8-(2,3-dichloro-6-hydroxyphenyl)-octahydro-1H-pyrido[1,2-a]pyrazine-1,4-dione], the figures for the IC50 in test [1] and in test [2] were below 1 µM and above 30 µM, respectively.

On to `NN1C(=O)[C@@H]2C[C@H](c3c(O)ccc(Cl)c3Cl)CCN2C1=O` [Compound 68, (7R,8aS)-2-amino-7-(2,3-dichloro-6-hydroxyphenyl)tetrahydro-imidazo[1,5-a]pyridine-1,3(2H,5H)-dione], for which the half-inhibitory concentration (IC50) in test [1] was below 1 µM; in test [2], above 30 µM.
